Data on 12 molecules can be found in ChEMBL document CHEMBL1201861, “Genomics of Drug Sensitity in Cancer screening data, Wellcome Trust Sanger Institute”.

Common to all, as to assay type: functional, cell-based
One assay concerns NCI-H128. Description: SANGER: Inhibition of human NCI-H128 cell growth in a cell viability assay.
For a further assay, the system named is CP67-MEL. Description: SANGER: Inhibition of human CP67-MEL cell growth in a cell viability assay.
The subject of a further assay is KP-N-RT-BM-1. Nature of the assay: SANGER: Inhibition of human KP-N-RT-BM-1 cell growth in a cell viability assay.
The next assay has as its system NCI-H2107. Description: SANGER: Inhibition of human NCI-H2107 cell growth in a cell viability assay.
The next assay concerns EW-12. Nature of the assay: SANGER: Inhibition of human EW-12 cell growth in a cell viability assay.
Another assay has as its system SKM-1. Nature of the assay: SANGER: Inhibition of human SKM-1 cell growth in a cell viability assay.
The subject of another assay is OC-314. Description: cells. Particulars: Homo sapiens.
The test system of a further assay is TGBC11TKB. Nature of the assay: cells. Particulars: Homo sapiens.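 Also: growth inhibition of human TGBC11TKB cells, measured by a cell viability assay.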
The subject of the next assay is SW 1116. Description: cells. To be noted: Homo sapiens.
The subject of the next assay is NCI-H1975. Description: cells. Particulars: Homo sapiens.
The next assay deals with CFPAC-1. Description: cells. Particulars: Homo sapiens.
Another assay relates to RH-18. Nature of the assay: cells. Particulars: Homo sapiens, Rh18.
The test system of a further assay is D-423MG. Description: cells. To be noted: Homo sapiens.
Another assay relates to ZR-75-30. Description: cells. To be noted: Homo sapiens.
The subject of the next assay is A549. Description: cells. To be noted: Homo sapiens.
In another assay the test system is YH-13. Nature of the assay: cells. Particulars: Homo sapiens.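 Also: cell viability readout of growth suppression in the human YH-13 cell line.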
The subject of a further assay is KNS-62. Nature of the assay: cells. Particulars: Homo sapiens.
Another assay relates to NBsusSR. Description: cells. Particulars: Homo sapiens.
The next assay concerns NCI-H1048. Nature of the assay: cells. Particulars: Homo sapiens.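 Also: growth inhibition of human NCI-H1048 cells, read out with a cell viability assay.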
Another assay deals with BALL-1. Description: cells. Particulars: Homo sapiens.
A further assay concerns TI-73. Nature of the assay: cells. Particulars: Homo sapiens.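 Also: cell viability assay measuring how much compounds suppress growth of the cultured cell line.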
The subject of the next assay is H9. Nature of the assay: cells. To be noted: Homo sapiens.
The subject of a further assay is D-566MG. Nature of the assay: cells. To be noted: Homo sapiens.
In another assay the test system is H-EMC-SS. Nature of the assay: cells. Particulars: Homo sapiens.
In another assay the test system is NCI-H2029. Nature of the assay: cells. To be noted: Homo sapiens.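 Also: Read-out is a viability assay on the cultured cells, and IC50 is the concentration that suppresses cell growth.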
A further assay deals with NCI-H1666. Nature of the assay: cells. To be noted: Homo sapiens.
Another assay has as its system SW900. Nature of the assay: cells. To be noted: Homo sapiens.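 Also: IC50 is the concentration that inhibits SW900 cell growth, measured by a cell viability assay.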
A further assay has as its system ECC10. Nature of the assay: cells. Particulars: Homo sapiens.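 Also: growth inhibition of ECC10 cells, read out by a cell viability assay.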
A further assay relates to EPLC-272H. Nature of the assay: cells. To be noted: Homo sapiens.
Another assay relates to CHP-134. Description: SANGER: Inhibition of human CHP-134 cell growth in a cell viability assay.

Description for A549: SANGER: Inhibition of human A549 cell growth in a cell viability assay.
Description for BALL-1: SANGER: Inhibition of human BALL-1 cell growth in a cell viability assay.
Description for CFPAC-1: SANGER: Inhibition of human CFPAC-1 cell growth in a cell viability assay.
Description for D-423MG: SANGER: Inhibition of human D-423MG cell growth in a cell viability assay.
Description for ECC10: SANGER: Inhibition of human ECC10 cell growth in a cell viability assay.
Description for EPLC-272H: SANGER: Inhibition of human EPLC-272H cell growth in a cell viability assay.
Description for H-EMC-SS: SANGER: Inhibition of human H-EMC-SS cell growth in a cell viability assay.
Description for H9: SANGER: Inhibition of human H9 cell growth in a cell viability assay.
Description for KNS-62: SANGER: Inhibition of human KNS-62 cell growth in a cell viability assay.
Description for NBsusSR: SANGER: Inhibition of human NBsusSR cell growth in a cell viability assay.
Description for NCI-H1048: SANGER: Inhibition of human NCI-H1048 cell growth in a cell viability assay.
Description for NCI-H1666: SANGER: Inhibition of human NCI-H1666 cell growth in a cell viability assay.
Description for NCI-H1975: SANGER: Inhibition of human NCI-H1975 cell growth in a cell viability assay.
Description for NCI-H2029: SANGER: Inhibition of human NCI-H2029 cell growth in a cell viability assay.
Description for OC-314: SANGER: Inhibition of human OC-314 cell growth in a cell viability assay.
Description for RH-18: SANGER: Inhibition of human RH-18 cell growth in a cell viability assay.
Description for SW 1116: SANGER: Inhibition of human SW1116 cell growth in a cell viability assay.
Description for SW900: SANGER: Inhibition of human SW900 cell growth in a cell viability assay.
Description for TGBC11TKB: SANGER: Inhibition of human TGBC11TKB cell growth in a cell viability assay.
Description for TI-73: SANGER: Inhibition of human TI-73 cell growth in a cell viability assay.
Description for YH-13: SANGER: Inhibition of human YH-13 cell growth in a cell viability assay.
Description for ZR-75-30: SANGER: Inhibition of human ZR-75-30 cell growth in a cell viability assay.

For the molecule `CCNc1cc(N[C@H]2CC[C@@H](O)CC2)nc(Nc2ccc3c(ccn3Cc3ccccc3)c2)n1`, the IC50 in the assay on NCI-H128, in the assay with CP67-MEL, in the assay with KP-N-RT-BM-1, in the assay with NCI-H2107, in the assay on EW-12 and with SKM-1 was more than 5.12 µM throughout.

In the case of `Cn1cc(/C=C2\C(=O)Nc3cccnc32)c2ccccc21`, the IC50 with OC-314, in the assay on TGBC11TKB, in the assay on SW 1116, with NCI-H1975, with CFPAC-1 and in the assay with RH-18 was more than 2 µM in each case. In addition, the IC50 with D-423MG, in the assay on ZR-75-30, in the assay on A549, in the assay with YH-13, in the assay on KNS-62 and in the assay on NBsusSR was more than 2 µM throughout. Moreover, the IC50 in the assay with NCI-H1048 was more than 2 µM; in the assay on BALL-1, more than 2 µM; in the assay on TI-73 it was more than 2 µM; in the assay with H9, more than 2 µM; in the assay on D-566MG, more than 2 µM; in the assay with H-EMC-SS, 0.765 µM. The IC50 in the assay with NCI-H2029, with NCI-H1666, in the assay with SW900, in the assay on ECC10 and in the assay on EPLC-272H was more than 2 µM in each case.

Consider `O=c1cc(N2CCOCC2)oc2c(-c3cccc4c3sc3ccccc34)cccc12`, for which the IC50 in the assay with OC-314 was more than 2 µM; in the assay on TGBC11TKB, more than 2 µM; in the assay with SW 1116, more than 2 µM; in the assay with CFPAC-1 it was more than 2 µM; with RH-18, more than 2 µM; in the assay on D-423MG, 1.69 µM. The half-maximal inhibitory concentration (IC50) in the assay with ZR-75-30, with CHP-134, with A549, with YH-13, with KNS-62 and with NBsusSR was more than 2 µM each time. For the same molecule, the IC50 with NCI-H1048, in the assay on BALL-1, with TI-73, with D-566MG, with H-EMC-SS and in the assay on NCI-H2029 was more than 2 µM in each case. For the same molecule, the IC50 with NCI-H1666, with SW900 and in the assay with EPLC-272H was more than 2 µM in each case.

Take `COc1cc(C)c(Sc2cnc(NC(=O)c3ccc(CNC(C)C(C)(C)C)cc3)s2)cc1C(=O)N1CCN(C(C)=O)CC1` (stereo unspecified): the IC50 with NCI-H128, with CP67-MEL, in the assay on KP-N-RT-BM-1, in the assay on NCI-H2107, in the assay on EW-12 and with SKM-1 was more than 10.2 µM throughout.

In the case of `NC(=O)c1ncn([C@@H]2O[C@H](COP(=O)(O)O)[C@@H](O)[C@H]2O)c1N`, the IC50 with TGBC11TKB is more than 2000 µM; with SW 1116 it was more than 2000 µM; with NCI-H1975, 1070 µM; in the assay on CFPAC-1 it was 1120 µM; in the assay with RH-18, more than 2000 µM; in the assay with D-423MG, more than 2000 µM. For the same molecule, the IC50 in the assay on ZR-75-30 is more than 2000 µM; with A549 it was more than 2000 µM; with YH-13, more than 2000 µM; in the assay with KNS-62 it was 996 µM; in the assay with NBsusSR it was 474 µM; in the assay with NCI-H1048, more than 2000 µM. For the same molecule, the IC50 in the assay on BALL-1 is more than 2000 µM; in the assay with TI-73 it was 724 µM; with D-566MG, more than 2000 µM; with NCI-H1666 it was more than 2000 µM; in the assay on SW900 it was more than 2000 µM; in the assay with EPLC-272H, 569 µM.

Consider `Cc1n[nH]c2ccc(-c3cncc(OC[C@@H](N)Cc4c[nH]c5ccccc45)c3)cc12` [A-443654], for which the IC50 is more than 1.02 µM in the assay on NCI-H128; 0.313 µM with CP67-MEL; 0.911 µM in the assay on KP-N-RT-BM-1; 0.958 µM with NCI-H2107; more than 1.02 µM with EW-12; more than 1.02 µM in the assay on SKM-1.

As to `Cn1c(=O)n(-c2ccc(C(C)(C)C#N)cc2)c2c3cc(-c4cnc5ccccc5c4)ccc3ncc21` [DACTOLISIB], the IC50 was 0.0387 µM in the assay on OC-314; 0.41 µM in the assay on TGBC11TKB; more than 2 µM in the assay with SW 1116; 0.151 µM in the assay on CFPAC-1; 0.395 µM in the assay on RH-18; 0.0521 µM in the assay with D-423MG. The IC50 in the assay with ZR-75-30 is more than 2 µM; with CHP-134 it was 0.14 µM; in the assay on A549, 0.0101 µM; in the assay with YH-13, 0.0219 µM; with KNS-62 it was 0.0454 µM; in the assay with NBsusSR it was 0.0246 µM. Also, the IC50 in the assay with NCI-H1048 is 0.0863 µM; in the assay on BALL-1, more than 2 µM; in the assay with TI-73 it was 0.0253 µM; in the assay on D-566MG, 0.0177 µM; in the assay on H-EMC-SS, 0.147 µM; with NCI-H2029 it was 1.42 µM. Moreover, the IC50 came to 0.00971 µM with NCI-H1666, 0.155 µM in the assay with SW900, 0.032 µM in the assay with ECC10 and 0.0444 µM with EPLC-272H.

Regarding `Cc1nc(Nc2ncc(C(=O)Nc3c(C)cccc3Cl)s2)cc(N2CCN(CCO)CC2)n1` [DASATINIB], the IC50 is more than 1.28 µM in the assay with NCI-H128; 0.205 µM in the assay on CP67-MEL; more than 1.28 µM in the assay with KP-N-RT-BM-1; more than 1.28 µM in the assay on NCI-H2107; more than 1.28 µM with EW-12; more than 1.28 µM in the assay with SKM-1.

For the molecule `C[C@]12O[C@H](C[C@]1(O)CO)n1c3ccccc3c3c4c(c5c6ccccc6n2c5c31)CNC4=O` [LESTAURTINIB], the 50% inhibitory concentration (IC50) in the assay on OC-314 is 1.84 µM; in the assay with TGBC11TKB, 1.41 µM; with SW 1116, more than 2 µM; in the assay on NCI-H1975, 1.25 µM; in the assay with CFPAC-1, more than 2 µM; in the assay with RH-18, more than 2 µM. In addition, the IC50 in the assay with D-423MG is 0.571 µM; with ZR-75-30, more than 2 µM; with A549, 0.194 µM; in the assay with YH-13 it was 0.135 µM; in the assay on KNS-62, more than 2 µM; in the assay with NBsusSR it was 0.162 µM. The IC50 is 0.141 µM in the assay with NCI-H1048; more than 2 µM with BALL-1; 0.235 µM in the assay with TI-73; 0.0348 µM in the assay with H9; 0.0965 µM with D-566MG; 0.425 µM in the assay on H-EMC-SS. For the same molecule, the IC50 was more than 2 µM in the assay with NCI-H2029; 1.89 µM in the assay with NCI-H1666; 1.41 µM with SW900; 0.311 µM in the assay with ECC10; 0.154 µM with EPLC-272H.

Regarding `CC(=O)c1c(C)c2cnc(Nc3ccc(N4CCNCC4)cn3)nc2n(C2CCCC2)c1=O` [PALBOCICLIB], the IC50 in the assay on OC-314, in the assay with TGBC11TKB, with SW 1116, in the assay on CFPAC-1, in the assay with RH-18 and in the assay on D-423MG was more than 4 µM each time. The half-inhibitory concentration (IC50) with ZR-75-30 is more than 4 µM; in the assay on CHP-134, 1.12 µM; in the assay with A549 it was 1.29 µM; in the assay on YH-13, 3.44 µM; with KNS-62 it was more than 4 µM; with NBsusSR it was 0.743 µM. In addition, the IC50 in the assay with NCI-H1048 was more than 4 µM; with BALL-1 it was more than 4 µM; in the assay with TI-73 it was more than 4 µM; in the assay with H9, 0.495 µM; in the assay with D-566MG, more than 4 µM; in the assay with H-EMC-SS, more than 4 µM. In addition, the IC50 is more than 4 µM with NCI-H2029, 2.7 µM with ECC10 and more than 4 µM with EPLC-272H.

As for `CCCS(=O)(=O)Nc1ccc(F)c(C(=O)c2c[nH]c3ncc(Cl)cc23)c1F` [PLX-4720], the concentration for half-maximal inhibition (IC50) with OC-314, in the assay on TGBC11TKB, with SW 1116, with CFPAC-1, in the assay with RH-18 and in the assay with D-423MG was more than 10 µM in each case. Moreover, the IC50 with ZR-75-30, in the assay on CHP-134, in the assay on A549, in the assay with YH-13, in the assay on KNS-62 and in the assay with NBsusSR was more than 10 µM each time. The IC50 in the assay with NCI-H1048 was more than 10 µM; in the assay with BALL-1, more than 10 µM; in the assay on TI-73, 6.01 µM; in the assay with D-566MG, more than 10 µM; with H-EMC-SS, more than 10 µM; in the assay with NCI-H2029, more than 10 µM. The concentration for half-maximal inhibition (IC50) in the assay on NCI-H1666, in the assay on SW900, in the assay with ECC10 and with EPLC-272H was more than 10 µM throughout.

In the case of `C[C@]1(c2nc3c(C(N)=O)cccc3[nH]2)CCCN1` [VELIPARIB], the IC50 in the assay with OC-314, with TGBC11TKB, with SW 1116, in the assay with CFPAC-1, in the assay with RH-18 and in the assay on D-423MG was more than 5 µM in each case. For the same molecule, the IC50 in the assay on ZR-75-30, with A549, with YH-13, in the assay with KNS-62, with NBsusSR and with NCI-H1048 was more than 5 µM each time. Besides, the concentration for half-maximal inhibition (IC50) in the assay with BALL-1, with TI-73, in the assay on H9, in the assay with D-566MG, with H-EMC-SS and with NCI-H2029 was more than 5 µM in each case. The IC50 in the assay with NCI-H1666, in the assay with SW900, with ECC10 and with EPLC-272H was more than 5 µM throughout.

For orientation: IC50 means the concentration that inhibits the measured activity by half.
